Source: PubChem BioAssay (NCI)
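Assay format: 96-well plates, 48-hour exposure. Here, GI50 denotes the concentration required for 50% inhibition of growth. TGI is the concentration that stops growth completely.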

Legend:
Test in all cases: NCI-60 cell line screen, 48 h
[1] = system: UACC-62 melanoma
[2] = system: KM12 colon
[3] = system: HOP-92 NSCLC
[4] = system: U251 CNS
[5] = system: A498 renal
[6] = system: SK-OV-3 ovarian
[7] = system: CCRF-CEM leukemia
[8] = system: OVCAR-8 ovarian
[9] = system: IGROV1 ovarian
[10] = system: CAKI-1 renal

Structure (SMILES) | GI50 [1] [µM] | TGI [1] [µM] | GI50 [2] [µM] | TGI [2] [µM] | GI50 [3] [µM] | TGI [3] [µM] | GI50 [4] [µM] | TGI [4] [µM] | GI50 [5] [µM] | TGI [5] [µM] | GI50 [6] [µM] | TGI [6] [µM] | GI50 [7] [µM] | TGI [7] [µM] | GI50 [8] [µM] | TGI [8] [µM] | GI50 [9] [µM] | TGI [9] [µM] | GI50 [10] [µM] | TGI [10] [µM]
CCCN1C(=O)N(CCC)C2C1NC(=S)N2/N=C/C=C/c1ccccc1OC (stereo unspecified) | 0.599 | 47 | 0.422 | > 100 | 0.624 | > 100 | 0.588 | 27.4 | 0.203 | 1 | 0.518 | > 100 | 0.448 | > 100 | 1.56 | > 62.6 | 0.831 | > 100 | 0.508 | 97.5
COc1ccc(-c2nn(-c3ccc(NC(=O)c4ccc(Cl)c(Cl)c4)cc3)cc2-c2ccncc2)cc1Cl | 1.78 | > 38.7 | 1.59 | > 50 | 7.65 | > 50 | 1.3 | > 50 | 1.26 | 4.52 | 4.29 | > 50 | 3.63 | > 50 | > 25.8 | > 50 | > 50 | > 50 | 1.33 | 5.26
COc1c(OC[C@H](O)CN2CCOCC2)ccc2c3n(c(=NC(=O)c4cccnc4C)nc12)CCN3 | 0.33 | > 50 | 40.7 | > 50 | 0.0637 | 10.1 | 2.58 | > 50 | 0.167 | 1.85 | 0.115 | 2.27 | 1.67 | > 50 | > 50 | > 50 | 0.06 | 0.343 | 0.859 | > 50
CN(C)CC[PH+](c1ccccc1)c1ccccc1.CN(C)CC[PH+](c1ccccc1)c1ccccc1.[Cl-].[Pd+2] | > 100 | > 100 | > 100 | > 100 | > 100 | > 100 | > 100 | > 100 | > 100 | > 100 | > 100 | > 100 | 23.9 | > 100 | > 100 | > 100 | > 100 | > 100 | > 100 | > 100
Cc1ccc(NC(=O)CCc2cc(C(C)(C)C)nc(=S)[nH]2)cc1C | – | > 100 | – | > 100 | – | > 100 | – | > 100 | – | > 100 | – | > 100 | – | > 100 | – | > 100 | – | > 100 | – | > 100
Cc1ccc(/C=C/C(=O)c2sc(-c3nc(C)c(C(=O)/C=C/c4ccc(C)cc4)s3)nc2C)cc1 | – | > 100 | – | > 100 | – | > 100 | – | > 100 | – | > 100 | – | > 100 | – | > 100 | – | > 100 | – | > 100 | – | > 100
Cc1ccc(NC(=O)CC2CC2)cc1-c1ccc(C(=O)NCC2CC2)cc1 | > 21.7 | > 25 | > 25 | > 25 | 8.45 | > 25 | > 25 | > 25 | > 25 | > 25 | > 25 | > 25 | > 25 | > 25 | > 25 | > 25 | > 25 | > 25 | > 25 | > 25
Cc1cc(Cl)ccc1NC(=O)C(=O)Cc1nc2ccccc2o1 | – | > 100 | – | > 100 | – | > 100 | – | > 100 | – | > 100 | – | > 100 | – | > 100 | – | > 100 | – | > 100 | – | > 100
O=C(/C=C/c1cccc2ccccc12)c1ccccc1Cl | – | 27.3 | – | 21.3 | – | 26.4 | – | 23.7 | – | 29.5 | – | 43.1 | – | 17.2 | – | 26.7 | – | 31 | – | 27.9
CCSc1ncnc2c1ncn2C1OC(CO)C(O)C1O (stereo unspecified) | 1.48 | > 100 | 0.702 | > 100 | 1.98 | 12.2 | 6.39 | > 100 | 0.081 | 1.92 | 0.754 | > 100 | 0.146 | > 100 | 0.296 | 16 | 0.442 | 18.1 | 0.272 | > 55.4
Nc1c(C(=O)Nc2ccncc2)sc2nc3c(cc12)CCCCCCCC3 | 0.885 | 1.67 | 0.877 | 1.62 | 0.761 | 1.49 | 0.933 | 1.73 | 0.871 | 1.58 | 0.846 | 1.61 | 1.3 | 3.26 | 1.54 | 50 | 0.933 | 1.82 | 0.805 | 1.49
COc1cc(F)ccc1-c1ncnc(Nc2cccc(CS(C)(=N)=O)c2)n1 (stereo unspecified) | 0.361 | 3.4 | 0.561 | > 100 | 0.671 | 4.19 | 0.779 | > 100 | 0.424 | 1.66 | 2.9 | > 100 | 0.447 | > 100 | 1.16 | > 100 | 0.65 | > 100 | 1.92 | > 100
O=c1ccn([C@H]2CSC[C@@H](CO)C2)c(=O)[nH]1 | – | > 100 | – | > 100 | – | > 100 | – | > 100 | – | > 100 | – | > 100 | – | > 100 | – | > 100 | – | > 100 | – | > 100
COc1ccc2c(c1)C(=O)c1c-2c(N2CCN(C(=O)CNCCNCCO)CC2)nc2ccccc12 | 2.82 | 8.64 | 2.48 | 5.79 | 2.47 | 9.68 | 4.08 | 16.3 | 8.32 | 20.2 | 13.7 | 28.2 | 1.98 | 5.22 | 10.2 | 33.8 | 1.72 | 4.73 | 12.8 | 35
O=C(CC1(O)C(=O)N(Cc2ccccc2)c2ccc(F)cc21)c1ccc(C(=O)NCC2CCC3(CC2)OOC2(CCCCC2)OO3)cc1 (stereo unspecified) | 2.18 | 5.61 | 0.338 | 1.19 | 0.186 | 0.378 | 0.251 | 0.674 | 1.69 | 3.88 | 2.9 | > 24 | 0.274 | 0.924 | 0.267 | 0.723 | 0.236 | 0.62 | 0.464 | 0.954
COc1ccc(NC(=O)/C(Cc2cc(=O)oc3cc(O)ccc23)=N\NC(C)(C)C)c(OC)c1 | – | > 100 | – | > 100 | – | > 100 | – | > 100 | – | > 100 | – | > 100 | – | > 100 | – | > 100 | – | > 100 | – | > 100
C=C(C)[C@@H]1CC[C@]2(C)[C@H](CC=C3[C@@H]4CC(C)(C)CC[C@]4(C(N)=O)CC[C@]32C)[C@@]1(C)CCC#N | 2.59 | 9.15 | 3.1 | 14.8 | 2.37 | 6.62 | 4.35 | > 100 | 2.16 | 5.32 | 4.62 | > 100 | 3.02 | > 100 | 5.24 | > 100 | 3.92 | > 100 | 3.01 | > 100
COc1cc2c(cc1OCCCNC(=O)c1cccc3c(=O)c4ccccc4[nH]c13)N=C[C@@H]1CCCN1C2=O | < 0.01 | < 0.01 | – | 13.2 | < 0.01 | 49.6 | < 0.01 | > 48.8 | < 0.01 | 0.0225 | 5.58 | > 100 | < 0.01 | – | 0.01 | – | – | > 33.5 | 0.116 | 0.571
CN1CCOC(c2ccccc2)O1 (stereo unspecified) | – | > 100 | – | > 100 | – | > 100 | – | > 100 | – | > 100 | – | > 100 | – | > 100 | – | > 100 | – | > 100 | – | > 100
O=C1C=CC(=O)c2cc3cc(CBr)ccc3cc21 | 5.61 | 15.6 | 17.5 | 38.4 | 3.18 | 9.93 | 14.4 | 36.2 | 17.5 | 34.4 | 19.1 | > 57.6 | 1.89 | > 100 | 5.88 | > 77.3 | 7.75 | > 73.9 | 2.34 | 6.25
O=C(Nc1nc(=S)c2c(ncn2CCOC(=O)c2ccccc2)[nH]1)c1ccccc1 | – | > 100 | – | > 100 | – | > 100 | – | > 100 | – | > 100 | – | > 100 | – | > 100 | – | > 100 | – | > 100 | – | > 100
CC(=O)c1sc(Nc2nnc(-c3ccc(-c4nnc(Nc5nc(C)c(C(C)=O)s5)o4)cc3)o2)nc1C | – | > 100 | – | > 10 | – | > 100 | – | > 100 | – | > 100 | – | > 10 | – | > 100 | – | > 100 | – | > 100 | – | > 10
